Test results from patent US4607034A, “Quinazoline derivatives and pharmaceutical composition thereof” (priority 1979, dated 1986).
Like-named read-outs stand apart in the source and are kept apart here.

Tests used:
ICR-strain male mice = assay: in vivo; type: in vivo; settings: oral, ten mice/group, one week
Protocol: (§1) Ten ICR-strain male mice weighing from 25 to 35 g. were used per one group, after fasting for 6 hours (water was freely taken in). Each test sample was suspended in a 1% tragacanth solution and administered orally at a concentration adjusted so as to give a volume of 40 ml/kg. After administration, feed was given and observation was continued for one week.

in vivo = type: in vivo; settings: mouse, in vivo; oral, mice, ten mice/group, observed one week
Protocol: as §1

[1] = system: spontaneously hypertensive rats (SHR); assay: Antihypertensive test in spontaneously hypertensive rats (mean blood pressure); type: in vivo, male); settings: Rattus norvegicus
Protocol: (§2) Through a cannula chronically intubated into the abdominal aorta of a male SHR of 20 to 30 weeks after birth, mean blood pressure and heart rate were measured by means of an electronic recording system without anesthesia and restraint. Five rats were employed in one group of SHR. […] At 1, 3, 6 and 24 hours after administration of test samples, blood pressure and heart rate were determined.

α-adrenoceptor = settings: known; cited from earlier work
[2] = system: spontaneously hypertensive rats (SHR); settings: rat, in vivo, po
Protocol: as §2

[3] = SHR 3 mg/kg, oral administration, 1 hr, negative = decrease, read-out: Percent decrease in mean blood pressure after administration, 1 hr
[4] = SHR 3 mg/kg, oral administration, 3 hrs, negative = decrease, read-out: Percent decrease in mean blood pressure after administration, 3 hrs
[5] = SHR 3 mg/kg, oral administration, 6 hrs, negative = decrease, read-out: Percent decrease in mean blood pressure after administration, 6 hrs
[6] = SHR 3 mg/kg, oral administration, 24 hrs, negative = decrease, read-out: Percent decrease in mean blood pressure after administration, 24 hrs

| SMILES | Number of dead mouse (ICR-strain male mice; 2,500 mg/kg) | Number of dead mouse (ICR-strain male mice; 5,000 mg/kg) | LD50 at 168 h (in vivo) [mg/kg] | change in vivo at 3 mg/kg [1, 3] [%] | change in vivo at 3 mg/kg [1, 4] [%] | change in vivo at 3 mg/kg [1, 5] [%] | change in vivo at 3 mg/kg [1, 6] [%] | Number of dead mouse (ICR-strain male mice; 1,250 mg/kg) | mechanism of antihypertensive activity (α-adrenoceptor) | change in vivo at 3 mg/kg ([1]; po, 24 h, read-out: Percent decrease in mean blood pressure after administration, 24 hrs) [%] | change in heart rate [2] |
| --- | --- | --- | --- | --- | --- | --- | --- | --- | --- | --- | --- |
| COc1cc2nc(N3CCN(C(=O)NC4CCCC4)CC3)nc(N)c2cc1OC [Compound 3, 2-(4-cyclopentylcarbamoyl-piperazin-1-yl)-4-amino-6,7-dimethoxyquinazoline] | 0 | 0 | > 5000 | -27.1 | -27 | -27 | -0.3 |  |  |  |  |
| COc1cc2nc(N3CCN(C(=O)NC4CCCCC4)CC3)nc(N)c2cc1OC [Compound 4, 2-(4-cyclohexylcarbamoyl-piperazin-1-yl)-4-amino-6,7-dimethoxyquinazoline] | 0 | 0 | > 5000 | -26.8 | -26.2 | -25.1 | -4.9 |  |  |  |  |
| COc1cc2nc(N3CCN(C(=O)NC4CCCCCC4)CC3)nc(N)c2cc1OC [Compound 5, 2-(4-cycloheptylcarbamoyl-piperazin-1-yl)-4-amino-6,7-dimethoxyquinazoline] |  |  |  | -18.4 | -24.7 | -19.2 | -3.7 |  |  |  |  |
| COc1cc2nc(N3CCN(C(=O)Nc4ccco4)CC3)nc(N)c2cc1OC [Compound 6, 2-[4-(furan-2-yl)carbamoyl-piperazin-1-yl]-4-amino-6,7-dimethoxyquinazoline] |  |  |  | -11.9 | -14.5 | -11.4 | 1 |  |  |  |  |
| COc1cc2nc(N3CCN(C(=S)NC4CCCCC4)CC3)nc(N)c2cc1OC [Compound 9, 2-(4-cyclohexylthiocarbamoyl-piperazin-1-yl)-4-amino-6,7-dimethoxyquinazoline] |  |  |  | -19.3 | -22.2 | -20.5 | -1.3 |  |  |  |  |
| COc1cc2nc(N3CCN(C(=O)Nc4ccccc4)CC3)nc(N)c2cc1OC [Compound 12, 2-(4-phenylcarbamoyl-piperazin-1-yl)-4-amino-6,7-dimethoxyquinazoline] | 0 | 0 | > 5000 | -13.3 | -19.7 | -17 | 3.7 |  |  |  |  |
| COc1cc2nc(N3CCN(C(=O)Nc4ccccc4C)CC3)nc(N)c2cc1OC [Compound 13, 2-[4-(2-methylphenyl)carbamoyl-piperazin-1-yl]-4-amino-6,7-dimethoxyquinazoline] | 5 | 10 | 2500 | -20.2 | -17.9 | -21.4 | 1.2 |  |  |  |  |
| COc1cc2nc(N3CCN(C(=O)Nc4ccc(C)cc4)CC3)nc(N)c2cc1OC [Compound 15, 2-[4-(4-methylphenyl)carbamoyl-piperazin-1-yl]-4-amino-6,7-dimethoxyquinazoline] |  |  |  | -17.1 | -18.5 | -21.8 | 1.2 |  |  |  |  |
| COc1cccc(NC(=O)N2CCN(c3nc(N)c4cc(OC)c(OC)cc4n3)CC2)c1 [Compound 18, 2-[4-(3-methoxyphenyl)carbamoyl-piperazin-1-yl]-4-amino-6,7-dimethoxyquinazoline] |  |  |  | -5.9 | -17.2 | -15.9 | 4.6 |  |  |  |  |
| CCOc1ccc(NC(=O)N2CCN(c3nc(N)c4cc(OC)c(OC)cc4n3)CC2)cc1 [Compound 21, 2-[4-(4-ethoxyphenyl)carbamoyl-piperazin-1-yl]-4-amino-6,7-dimethoxyquinazoline] | 0 | 0 | > 5000 | -22.4 | -24.5 | -27.7 | -6.4 |  |  |  |  |
| COc1cc2nc(N3CCN(C(=O)Nc4ccccc4F)CC3)nc(N)c2cc1OC [Compound 25, 2-[4-(2-fluorophenyl)carbamoyl-piperazin-1-yl]-4-amino-6,7-dimethoxyquinazoline] | 7 | 10 | 1870 | -30.3 | -22 | -23.8 | -7.3 | 3 |  |  |  |
| COc1cc2nc(N3CCN(C(=O)Nc4cccc(F)c4)CC3)nc(N)c2cc1OC [Compound 26, 2-[4-(3-fluorophenyl)carbamoyl-piperazin-1-yl]-4-amino-6,7-dimethoxyquinazoline] |  |  |  | -21.5 | -21.7 | -24.3 | 0 |  |  |  |  |
| COc1cc2nc(N3CCN(C(=O)Nc4cccc(Cl)c4)CC3)nc(N)c2cc1OC [Compound 29, 2-[4-(3-chlorophenyl)carbamoyl-piperazin-1-yl]-4-amino-6,7-dimethoxyquinazoline] |  |  |  | -15.1 | -18.5 | -19.4 | -4.9 |  |  |  |  |
| COc1cc2nc(N3CCN(C(=O)Nc4ccc(Cl)cc4C)CC3)nc(N)c2cc1OC [Compound 34, 2-[4-(2-methyl-4-chlorophenyl)carbamoyl-piperazin-1-yl]-4-amino-6,7-dimethoxyquinazoline] |  |  |  | -12.1 | -19 | -18.2 | -1.2 |  |  |  |  |
| COc1cc2nc(N3CCN(/C(S)=N/c4ccccc4)CC3)nc(N)c2cc1OC [Compound 35, 2-(4-phenylthiocarbamoyl-piperazin-1-yl)-4-amino-6,7-dimethoxyquinazoline] | 0 | 0 | > 5000 | -28 | -20.9 | -24.7 | 0.6 |  |  |  |  |
| COc1cc2nc(N3CCCN(C(=O)Nc4ccccc4)CC3)nc(N)c2cc1OC [Compound 37, 2-(4-phenylcarbamoyl-homopiperazin-1-yl)-4-amino-6,7-dimethoxyquinazoline] |  |  |  | -11.7 | -12.8 | -5 | 0 |  |  |  |  |
| COc1cc2nc(N3CCN(C(=O)c4ccco4)CC3)nc(N)c2cc1OC [Prazosin, 2-[4-(2-furoyl)-piperazin-1-yl]-4-amino-6,7-dimethoxyquinazoline, reference compound] |  |  |  | -27.9 | -17.3 | -19 |  |  | relaxation of peripheral arterioles as a consequence of α-adrenoceptor blockade | -1.7 | no significant change |
